Literature values as cited in US8529935B2, “Antibacterial hydrogel and use thereof in orthopedics” (Mero S.R.L., priority 2009, dated 2013).

Details: known from the literature

SMILES	minimum inhibiting concentration (MIC)
NC[C@H]1O[C@H](O[C@H]2[C@H](O)[C@@H](O[C@H]3O[C@H](CO)[C@@H](O)[C@H](N)[C@H]3O)[C@H](N)C[C@@H]2N)[C@H](N)C[C@@H]1O [tobramycin]	about 1 mg/l
CN[C@H](CC(C)C)C(=O)N[C@H]1C(=O)N[C@@H](CC(N)=O)C(=O)N[C@H]2C(=O)N[C@H]3C(=O)N[C@H](C(=O)N[C@H](C(=O)O)c4cc(O)cc(O)c4-c4cc3ccc4O)[C@H](O)c3ccc(c(Cl)c3)Oc3cc2cc(c3O[C@@H]2O[C@H](CO)[C@@H](O)[C@H](O)[C@H]2O[C@H]2C[C@](C)(N)[C@H](O)[C@H](C)O2)Oc2ccc(cc2Cl)[C@H]1O [vancomycin]	1.56 to 3.12 µg/mL
